Two compounds from patent US20260107938A1, “HERBICIDE/SAFENER COMBINATION BASED ON SAFENERS FROM THE CLASS OF SUBSTITUTED [(1,5- DIPHENYL-1H-1,2,4-TRIAZOL-3-YL)OXY]ACETIC ACIDS AND THEIR SALTS” (BAYER AKTIENGESELLSCHAFT, priority 2022, published 2026) can be followed below.

The test deals with summer wheat (TRZAS; cv. Triso). Put plainly: Greenhouse post-emergence trial: reduction in herbicide damage to summer wheat by safener. The arrangement: key to Reduction in damage by safener (difference): difference in visual damage, % points (0-100% scale vs untreated). Type of test: in vivo. The following applies: 21 days after application. On the procedure:
Effect of selective herbicide/safener combinations of the invention using the example of reduction in damage to summer wheat (TRZAS):
The seeds of the crop plants to be treated were laid out in soil in plastic pots (diameter ˜8 cm), covered with soil and grown in a greenhouse under good conditions for germination and growth. The trial plants were treated at the early leaf stage (BBCH12).
For this purpose, the herbicides and safeners used were formulated as wettable powders (WP), mixed in accordance with the dose specified in each case, and sprayed onto the above-ground parts of the plants as an aqueous suspension at a water application rate corresponding to 300 l/ha with addition of wetting agent (Mero, 1.5 l/ha).
The dose of the respective herbicides was chosen here such that it causes visually apparent damage (min. 30%, max. 70%) compared to untreated crop plants at the evaluation time on a control group of crop plants without safener treatment that were included in the same trial. After application, the plants were cultivated under good growth conditions in a greenhouse. 21 days after application, the herbicide damage was assessed visually. The damage was assessed visually on a scale of 0-100% by comparison with untreated control plants, and averaged over 2 repeats per treatment.
0%=no noticeable effect compared to the untreated plant 20%=the treated plant population has 20% damage compared to the untreated control population (e.g. growth height, leaf damage, etc.)
100%=treated plants completely damaged/killed.
The safeners were each used at an application rate of 80 g/ha.

The mark [1] stands for this setting: herbicide B19 100 g a.i./ha + safener 80 g/ha.
Setting [2] is: herbicide B110 50 g a.i./ha + safener 80 g/ha.
[3] abbreviates: herbicide B122 50 g a.i./ha + safener 80 g/ha.
Where [4] appears, read: herbicide B123 50 g a.i./ha + safener 80 g/ha.

SMILES strings stand for the structures.

Turning to `COC(=O)COc1nc(-c2ccc(Cl)cc2F)n(-c2ccc(Cl)cc2F)n1` [Compound A1, methyl {[1,5-bis(4-chloro-2-fluorophenyl)-1H-1,2,4-triazol-3-yl]oxy}acetate], the “Damage to the plant on application of herbicide + safener” value by setting is: under setting [1], 0%; under setting [2], 0%; under setting [3], 0%; under setting [4], 10%. Besides, the “Reduction in damage by safener (difference)” value is given as 30 under setting [1], 70 under setting [2], 55 under setting [3] and 60 under setting [4]. The “Reduction in damage by safener (in %)” value by setting is: under setting [1], 100%; under setting [2], 100%; under setting [3], 100%; under setting [4], 86%.
For the compound `COC(=O)COc1nc(-c2ccc(F)cc2F)n(-c2ccc(Cl)cc2F)n1` [Compound A5, methyl {[1-(4-chloro-2-fluorophenyl)-5-(2,4-difluorophenyl)-1H-1,2,4-triazol-3-yl]oxy}acetate], the “Damage to the plant on application of herbicide + safener” value was 0% under setting [1], 0% under setting [2], 0% under setting [3] and 25% under setting [4]. For the same compound, the “Reduction in damage by safener (difference)” value by setting is: under setting [1], 30; under setting [2], 70; under setting [3], 55; under setting [4], 45. In addition, the “Reduction in damage by safener (in %)” value under setting [1] was 100%, the “Reduction in damage by safener (in %)” value under setting [2] is recorded as 100%, the “Reduction in damage by safener (in %)” value under setting [3] was 100% and the “Reduction in damage by safener (in %)” value under setting [4] is 64%.
